In brackets after ≈: the same amount, converted by molar mass.
How the values were obtained:
[1] = (§1) Antimicrobial activity against Bacillus sp. BS-01 expressing multiple resistance gene cfr and […] resistance gene fexA obtained from swine feces; assay type: functional; conditions: Bacillus sp. BS-01, Feces
[2] = system: Staphylococcus aureus; assay: Antimicrobial activity against Staphylococcus aureus RN4220 harboring pBS-01multiple resistance gene cfr and phenolic resistance gene fexA obtained from swine feces
[3] = system: Staphylococcus aureus; assay: Antimicrobial activity against Staphylococcus aureus RN4220; assay type: functional
[4] = system: Bacillus sp. BS-01; assay: as §1; assay type: functional

Molecule | MIC [1] [µg/mL] | MIC [2] [µg/mL] | MIC [3] [µg/mL] | MIC [4] [µg/mL]
CN(C)[C@@H]1C(O)=C(C(N)=O)C(=O)[C@@]2(O)C(O)=C3C(=O)c4c(O)cccc4[C@@](C)(O)[C@H]3C[C@@H]12 [TETRACYCLINE] | 32 (≈ 72 µM) | 1 (≈ 2.25 µM) | 1 (≈ 2.25 µM) | 
O=C(O)c1cn(C2CC2)c2cc(N3CCNCC3)c(F)cc2c1=O [CIPROFLOXACIN] | 8 (≈ 24.1 µM) | 0.5 (≈ 1.51 µM) | 0.5 (≈ 1.51 µM) | 
O=C(N[C@H](CO)[C@H](O)c1ccc([N+](=O)[O-])cc1)C(Cl)Cl [CHLORAMPHENICOL] | 32 (≈ 99 µM) | 4 (≈ 12.4 µM) | 16 (≈ 49.5 µM) | 
CCC[C@@H]1C[C@@H](C(=O)N[C@@H]([C@H]2O[C@H](SC)[C@H](O)[C@@H](O)[C@H]2O)[C@H](C)Cl)N(C)C1 [CLINDAMYCIN] | > 32 | < 0.625 | > 32 | 
CC(=O)NC[C@H]1CN(c2ccc(N3CCOCC3)c(F)c2)C(=O)O1 [LINEZOLID] | 2 (≈ 5.93 µM) | 1 (≈ 2.96 µM) |  | 
CN[C@H](CC(C)C)C(=O)N[C@H]1C(=O)N[C@@H](CC(N)=O)C(=O)N[C@H]2C(=O)N[C@H]3C(=O)N[C@H](C(=O)N[C@H](C(=O)O)c4cc(O)cc(O)c4-c4cc3ccc4O)[C@H](O)c3ccc(c(Cl)c3)Oc3cc2cc(c3O[C@@H]2O[C@H](CO)[C@@H](O)[C@H](O)[C@H]2O[C@H]2C[C@](C)(N)[C@H](O)[C@H](C)O2)Oc2ccc(cc2Cl)[C@H]1O [VANCOMYCIN] | 0.5 (≈ 0.345 µM) |  |  | 
CC[C@H]1OC(=O)[C@H](C)[C@@H](O[C@H]2C[C@@](C)(OC)[C@@H](O)[C@H](C)O2)[C@H](C)[C@@H](O[C@@H]2O[C@H](C)C[C@H](N(C)C)[C@H]2O)[C@](C)(O)C[C@@H](C)C(=O)[C@H](C)[C@@H](O)[C@]1(C)O [ERYTHROMYCIN] | > 64 | 0.25 (≈ 0.341 µM) | > 64 | 
CS(=O)(=O)c1ccc([C@@H](O)[C@@H](CF)NC(=O)C(Cl)Cl)cc1 [FLORFENICOL] | 32 (≈ 89.3 µM) | 4 (≈ 11.2 µM) | 16 (≈ 44.7 µM) | 
GENTAMICIN |  |  | 0.25 | 8
C=C[C@]1(C)C[C@@H](OC(=O)CSCCN(CC)CC)[C@]2(C)[C@H](C)CC[C@]3(CCC(=O)[C@H]32)[C@@H](C)[C@@H]1O [TIAMULIN] | 256 (≈ 518 µM) | < 0.5 | 32 (≈ 64.8 µM) | 

Source: ChEMBL document CHEMBL1649326, “First report of the multidrug resistance gene cfr and the phenicol resistance gene fexA in a Bacillus strain from swine feces” (2010)
